The source of these data is patent US20240182445A1 (ONO PHARMACEUTICAL CO., LTD., priority 2019, published 2024).

“Also recorded” adds a separate entry of the source.

The test system of data set [1] is MK-801-induced deficits in the Novel Object Recognition Task. The data set can be described thus: MK-801-induced novel object recognition test. Type of data set: in vivo, Sprague-Dawley rats. Conditions: rats; 0.1 mg/kg, 0.3 mg/kg and 1 mg/kg; MK-801 0.2 mg/kg. The protocol:
The term “MK-801-induced novel object recognition test” herein refers to the experiment to evaluate in vivo efficacy in the schizophrenic cognitive impairment animal model. The detail method is described below. MK-801 is also known as dizocilpine.
MK-801-Induced Novel Object Recognition Test:
Testing was performed using 6-week-old male Sprague Dawley rats. On the testing day, rats were habituated at the empty box for 10 minutes individually. The disclosed compound was administered orally 1 h prior, followed by administration of MK-801 (0.2 mg/kg, s.c.) 30 min prior to the acquisition trial for 10 min. The retention trial for 10 min was performed with the intertrial interval for 80 min. The rat was allowed to explore the same objects in the acquisition trial. In the retention trial, one of the objects used in the acquisition trial was replaced with a novel one. The exploration time of licking, sniffing or touching was measured in the retention trial. Efficacy of each compound at the dose of 0.3, 1, 3 or 10 mg/kg p.o. (n=12-15) was determined by the recognition index (exploration time to the novel object/total exploration time). The scores of MK-801/vehicle and MK-801/compound-treated groups were statistically analyzed by Dunnett's test.
MK-801 induced disruptions of Novel Object Recognition
Drugs: Test compounds were formulated in 10% Tween 80/90% sterile water vehicle. […]

Data set [2] in a line: Rat brain homogenate binding (BHB). Type of data set: in vitro ADME. The procedure: (§1) These assays were performed according to known methods as generally described in the following references: Conde-Ceide et al. ACS Med. Chem. Lett. 2015, 6, 716-720; Morris et al. J. Med. Chem. 2014, 57, 10192-10197; and Bubser et al. ACS Chem. Neurosci. 2014, 5, 920-942. Abbreviations which have been used in the descriptions of the following tables are; PPB is plasma protein binding; BHB is brain homogenate binding; and CLint is intrinsic clearance in hepatic microsomes.

A short description of data set [3]: Human hepatic microsomal intrinsic clearance. Conditions: human hepatic microsomes. Type of data set: in vitro ADME. The protocol: as §1
Data set [4] has as its target CYP2D6 (Homo sapiens, UniProt P10635). Description: P450 inhibition 2D6. Type of data set: in vitro ADME. The procedure:
as §1

In data set [5] the target is T1, human TREK-1 (Homo sapiens, UniProt O95069).
T1 construct: expressed in transfected cells
T1 sequence (O95069 1-426): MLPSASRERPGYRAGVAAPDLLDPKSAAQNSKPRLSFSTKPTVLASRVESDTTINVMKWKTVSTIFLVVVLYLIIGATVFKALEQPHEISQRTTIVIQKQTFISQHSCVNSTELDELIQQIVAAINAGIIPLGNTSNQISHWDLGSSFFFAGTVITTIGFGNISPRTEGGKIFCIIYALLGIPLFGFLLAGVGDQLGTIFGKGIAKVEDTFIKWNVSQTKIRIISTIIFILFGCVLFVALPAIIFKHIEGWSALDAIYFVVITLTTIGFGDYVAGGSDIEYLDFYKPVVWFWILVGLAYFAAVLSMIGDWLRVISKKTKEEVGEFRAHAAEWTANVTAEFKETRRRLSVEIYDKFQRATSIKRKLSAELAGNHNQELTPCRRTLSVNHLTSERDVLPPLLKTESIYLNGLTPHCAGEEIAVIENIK
The data set can be described thus: TREK-1 Manual Patch Clamp (hMPC) assay. Conditions: CHO-K1 cells stably expressing human TREK-1; whole-cell current at 0 mV. The class given is cell-based. The procedure: The term “patch clamp technique” herein refers to the “gold standard” technique for evaluating TREK channel pharmacology. The detail method is described below.
CHO-K1 cells stably expressing human TREK-1 or HEK293 cells stably expressing human TREK-2 are plated on glass coverslips, and voltage clamped in the whole-cell configuration of the patch clamp technique. Cells were voltage clamped at a holding potential of −80 mV and the stepped to 0 mV for 500 msec. The voltage was subsequently ramped from −120 mV to +80 mV over a 500 msec duration. This step-ramp protocol was repeated every 10 sec. The bathing solution contained the following: 135 mM NaCl, 5 mM KCl, 2 mM CaCl2, 1 mM MgCl2, 5 mM D-Glucose, 10 mM HEPES, 10 mM sucrose (adjusted to pH 7.4 with NaOH, 300 mosmol/kg H2O). The pipette solution contained the following: 135 mM KCl, 2 mM MgCl2, 1 mM EGTA, 10 mM HEPES, 2 mM Na2ATP (adjusted to pH 7.35 with KOH, 285 mosmol/kg H2O). Test compounds were dissolved into the bathing solution. Experiments on TREK-2 were terminated with the addition of the control compound (tert-butyl (3-((4-(benzyloxy)-2-methylphenyl)carbamoyl)-4-chlorophenyl)carbamate) so that maximal inhibition could be determined. The effects of test compound on the currents were calculated at 0 mV using the following equations:
For CHO cells expressing TREK-1 channel: % inhibition=(1-post current/pre current)×100
The compounds shown in Table 2 were prepared in an analogous manner with the appropriate starting materials, and evaluated in our TREK-1 Manual Patch Clamp (hMPC) assay.
(In patch-clamp work, channel activity is measured electrically.)

Sequence of CYP2D6 (P10635 whole entry): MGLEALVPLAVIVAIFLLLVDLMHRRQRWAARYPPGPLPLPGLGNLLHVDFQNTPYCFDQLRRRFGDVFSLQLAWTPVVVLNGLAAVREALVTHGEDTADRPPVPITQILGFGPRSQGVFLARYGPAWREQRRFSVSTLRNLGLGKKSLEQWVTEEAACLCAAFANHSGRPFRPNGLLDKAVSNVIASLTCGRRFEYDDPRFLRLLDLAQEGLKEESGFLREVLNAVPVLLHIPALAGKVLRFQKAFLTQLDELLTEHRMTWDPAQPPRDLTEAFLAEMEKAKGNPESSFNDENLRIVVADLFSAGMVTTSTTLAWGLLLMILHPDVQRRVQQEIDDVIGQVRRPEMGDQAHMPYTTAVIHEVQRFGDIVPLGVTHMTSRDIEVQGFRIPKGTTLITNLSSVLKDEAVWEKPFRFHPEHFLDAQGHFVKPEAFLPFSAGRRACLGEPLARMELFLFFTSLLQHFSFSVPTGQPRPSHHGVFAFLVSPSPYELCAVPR

For `CC(=O)N[C@H]1CC[C@@H](n2ncc(Cl)c2C(=O)Nc2ncc(C#Cc3ccccc3)cc2C)CC1` [Compound 12, 1-(cis-4-acetamidocyclohexyl)-4-chloro-N-(3-methyl-5-(phenylethynyl)pyridin-2-yl)-1H-pyrazole-5-carboxamide], in data set [1], the “reversal of MK-801-induced deficits in the Novel Object Recognition Task” value is on record as “dose-dependently reversed; also recorded: caused reversal”. For the same compound, the “Rat BHB (% bound)” value in data set [2] worked out at 99.7 % bound. In addition, the CLint scaled in data set [3] was 16 mL/min/kg. Moreover, the IC50 in data set [4] was determined as 4500 nM; in data set [5], 60 nM.

By CLint scaled is commonly meant the capacity of the preparation to metabolise the compound, expressed as a volume cleared per time. The low end stands for greater metabolic stability, the high end for faster metabolism. The IC50 is the point on the concentration scale where inhibition reaches its midpoint. Read a low IC50 as higher potency.
